Columns and labels:
HiBit-BRM fusion protein = molecular target: T1, HiBit-BRM fusion protein (Homo sapiens, UniProt P51531); experiment: HiBiT-BRM cell-based degradation assay (Nano-Glo HiBiT Lytic Detection, 24 h); details: HeLa cell line expressing HiBiT-BRM; for DC50: read-out: BRM HiBit Degradation IC50
T1 construct: expressed in transfected cells
How it was run: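 Luminescence from reconstituted NanoBiT luciferase in lysed HeLa HiBiT-BRM cells served as the measure of remaining BRM after 24 h treatment. Compounds were tested from 30 μM final downward in 3-fold steps. DMSO and 2 μM of a standard BRM/BRG1 degrader defined the scale limits.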

[1] = molecular target: T2, HiBit-BRG1 fusion protein (Homo sapiens, UniProt P51532); experiment: HiBiT-BRG1 cell-based degradation assay (Nano-Glo HiBiT Lytic Detection, 24 h); details: HeLa cell line expressing HiBit-BRG1 and LgBit; for Dmax: read-out: BRG1 HiBit Degradation Maximum (%)
T2 construct: expressed in transfected cells
T2 sequence (P51532 whole entry, the tested form may be a part): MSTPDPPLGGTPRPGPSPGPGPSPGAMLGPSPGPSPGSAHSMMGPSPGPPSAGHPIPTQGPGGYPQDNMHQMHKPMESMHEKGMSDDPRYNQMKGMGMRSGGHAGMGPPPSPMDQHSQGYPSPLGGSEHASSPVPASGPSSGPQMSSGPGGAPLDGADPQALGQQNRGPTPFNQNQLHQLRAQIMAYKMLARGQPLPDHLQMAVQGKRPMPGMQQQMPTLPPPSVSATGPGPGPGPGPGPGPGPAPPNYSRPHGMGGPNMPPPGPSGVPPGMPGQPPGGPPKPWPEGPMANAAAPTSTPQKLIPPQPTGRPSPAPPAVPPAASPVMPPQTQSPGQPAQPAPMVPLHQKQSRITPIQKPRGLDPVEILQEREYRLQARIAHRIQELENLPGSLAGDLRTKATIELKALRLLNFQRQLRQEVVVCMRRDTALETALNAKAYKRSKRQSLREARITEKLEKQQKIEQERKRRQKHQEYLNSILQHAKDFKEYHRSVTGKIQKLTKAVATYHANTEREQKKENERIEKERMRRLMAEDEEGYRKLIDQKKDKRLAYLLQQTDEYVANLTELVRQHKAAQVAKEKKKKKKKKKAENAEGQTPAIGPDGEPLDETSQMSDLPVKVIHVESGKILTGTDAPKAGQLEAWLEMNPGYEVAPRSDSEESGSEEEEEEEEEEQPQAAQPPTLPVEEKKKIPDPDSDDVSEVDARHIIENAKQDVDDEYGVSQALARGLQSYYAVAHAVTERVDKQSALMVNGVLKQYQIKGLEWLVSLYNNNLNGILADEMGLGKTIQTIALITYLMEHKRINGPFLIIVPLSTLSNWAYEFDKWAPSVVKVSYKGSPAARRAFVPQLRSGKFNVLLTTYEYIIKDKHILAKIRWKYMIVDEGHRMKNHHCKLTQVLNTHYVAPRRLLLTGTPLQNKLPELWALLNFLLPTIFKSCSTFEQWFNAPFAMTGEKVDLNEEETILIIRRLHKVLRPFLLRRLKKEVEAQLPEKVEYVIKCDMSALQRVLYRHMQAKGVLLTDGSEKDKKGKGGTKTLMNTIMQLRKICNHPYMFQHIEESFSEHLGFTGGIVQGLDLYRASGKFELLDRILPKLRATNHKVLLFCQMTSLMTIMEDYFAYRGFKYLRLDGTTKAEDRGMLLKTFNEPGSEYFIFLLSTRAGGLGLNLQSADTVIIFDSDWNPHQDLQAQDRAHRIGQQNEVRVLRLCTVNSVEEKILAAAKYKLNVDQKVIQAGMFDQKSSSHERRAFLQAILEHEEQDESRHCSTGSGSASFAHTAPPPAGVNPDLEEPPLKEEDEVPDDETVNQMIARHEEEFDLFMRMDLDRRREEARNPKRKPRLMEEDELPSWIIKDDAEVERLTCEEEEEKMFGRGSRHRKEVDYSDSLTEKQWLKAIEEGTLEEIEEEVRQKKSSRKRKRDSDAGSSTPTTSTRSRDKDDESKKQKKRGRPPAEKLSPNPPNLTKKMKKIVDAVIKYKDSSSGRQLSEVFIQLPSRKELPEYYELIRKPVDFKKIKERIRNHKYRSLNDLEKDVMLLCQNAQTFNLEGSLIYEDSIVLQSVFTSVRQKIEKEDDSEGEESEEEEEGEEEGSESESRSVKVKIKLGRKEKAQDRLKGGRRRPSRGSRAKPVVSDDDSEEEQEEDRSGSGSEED
How it was run: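 Percent degradation derived from lytic HiBiT signal, normalized to DMSO-treated cells and to cells given 2 μM of a known BRM/BRG1 degrader. The HeLa line stably expressed HiBit-BRG1 and LgBit; treatment lasted 24 h at 5000 cells per well.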

[2] = read-out: BRMG1 HiBit Degradation IC50

T1 sequence (P51531 whole entry, the tested form may be a part): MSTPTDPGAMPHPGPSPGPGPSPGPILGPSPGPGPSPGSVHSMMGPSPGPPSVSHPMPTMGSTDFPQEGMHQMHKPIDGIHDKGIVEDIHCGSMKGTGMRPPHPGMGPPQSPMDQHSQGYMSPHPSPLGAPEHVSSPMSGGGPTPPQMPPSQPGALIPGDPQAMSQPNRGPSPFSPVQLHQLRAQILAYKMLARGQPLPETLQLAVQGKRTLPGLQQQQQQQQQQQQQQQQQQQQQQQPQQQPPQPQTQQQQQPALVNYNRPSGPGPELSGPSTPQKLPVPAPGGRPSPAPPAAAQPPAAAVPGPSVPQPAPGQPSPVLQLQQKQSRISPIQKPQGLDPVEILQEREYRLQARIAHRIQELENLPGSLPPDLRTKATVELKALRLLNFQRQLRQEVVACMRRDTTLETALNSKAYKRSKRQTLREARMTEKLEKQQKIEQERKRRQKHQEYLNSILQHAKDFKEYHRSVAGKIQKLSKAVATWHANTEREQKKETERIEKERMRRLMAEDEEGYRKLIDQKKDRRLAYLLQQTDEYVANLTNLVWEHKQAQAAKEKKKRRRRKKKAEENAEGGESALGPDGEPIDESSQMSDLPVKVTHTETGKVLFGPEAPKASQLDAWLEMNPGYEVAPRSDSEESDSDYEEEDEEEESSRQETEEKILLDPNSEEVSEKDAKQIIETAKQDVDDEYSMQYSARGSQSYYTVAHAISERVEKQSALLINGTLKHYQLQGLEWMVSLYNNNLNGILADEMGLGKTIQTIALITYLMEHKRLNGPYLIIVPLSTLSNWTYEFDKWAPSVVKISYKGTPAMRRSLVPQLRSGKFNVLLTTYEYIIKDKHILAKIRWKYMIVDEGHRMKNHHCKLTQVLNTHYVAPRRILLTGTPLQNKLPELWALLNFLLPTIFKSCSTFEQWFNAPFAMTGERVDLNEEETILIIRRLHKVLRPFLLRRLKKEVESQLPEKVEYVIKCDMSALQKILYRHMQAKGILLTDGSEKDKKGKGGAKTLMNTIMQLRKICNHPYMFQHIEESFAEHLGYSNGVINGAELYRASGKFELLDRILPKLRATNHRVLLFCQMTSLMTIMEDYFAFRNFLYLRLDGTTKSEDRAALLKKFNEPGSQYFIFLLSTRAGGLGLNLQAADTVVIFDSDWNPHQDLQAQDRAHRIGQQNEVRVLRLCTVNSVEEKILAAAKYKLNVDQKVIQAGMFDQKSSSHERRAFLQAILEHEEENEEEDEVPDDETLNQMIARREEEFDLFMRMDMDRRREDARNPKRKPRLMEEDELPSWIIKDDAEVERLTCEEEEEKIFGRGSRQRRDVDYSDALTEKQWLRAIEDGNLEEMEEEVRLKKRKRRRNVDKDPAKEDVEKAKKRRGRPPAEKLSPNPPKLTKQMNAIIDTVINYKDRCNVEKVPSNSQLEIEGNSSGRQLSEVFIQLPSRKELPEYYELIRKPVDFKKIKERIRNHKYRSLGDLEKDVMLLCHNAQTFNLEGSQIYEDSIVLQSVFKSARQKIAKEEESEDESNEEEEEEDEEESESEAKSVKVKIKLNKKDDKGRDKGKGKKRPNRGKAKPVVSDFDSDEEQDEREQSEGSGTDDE

| Structure (SMILES) | Dmax [1] [%] | DC50 (HiBit-BRM fusion protein) [nM] | DC50 [1, 2] [nM] | BRM HiBit Degradation Maximum (%) (HiBit-BRM fusion protein) | IC50 (HiBit-BRM fusion protein) [nM] | BRG1 HiBit Degradation Maximum (%) [1] | IC50 [1, 2] [nM] |
| --- | --- | --- | --- | --- | --- | --- | --- |
| Cc1ncsc1-c1ccc([C@H](C)NC(=O)[C@@H]2C[C@@H](O)CN2C(=O)[C@@H](c2cc(N3CCN(C(=O)[C@H]4C[C@]5(Cc6cc(-c7ccccc7O)nnc6N5)C4)CC3)no2)C(C)C)cc1 [Compound 77, (2S,4R)-4-hydroxy-1-((R)-2-(3-(4-((1S,3r)-3′-(2-hydroxyphenyl)-5′,7′-dihydrospiro[cyclobutane-1,6′-pyrrolo[2,3-c]pyridazine]-3-carbonyl)piperazin-1-yl)isoxazol-5-yl)-3-methylbutanoyl)-N-((S)-1-(4-(4-methylthiazol-5-yl)phenyl)ethyl)pyrrolidine-2-carboxamide] |  |  |  | A (“A” indicates maximum degradation ≥ 75%) | > 10 | A (“A” indicates maximum degradation ≥ 75%) | > 100 |
| Cc1ncsc1-c1ccc([C@H](C)NC(=O)[C@@H]2C[C@@H](O)CN2C(=O)[C@@H](c2cc(N3C[C@H]4C[C@@H]3CN4C(=O)[C@@H]3CCc4[nH]c5nnc(-c6ccccc6O)cc5c4C3)no2)C(C)C)cc1 [Compound 101, (2S,4R)-4-hydroxy-1-((R)-2-(3-((1R,4R)-5-((R)-3-(2-hydroxyphenyl)-6,7,8,9-tetrahydro-5H-pyridazino[3,4-b]indole-6-carbonyl)-2,5-diazabicyclo[2.2.1]heptan-2-yl)isoxazol-5-yl)-3-methylbutanoyl)-N-((S)-1-(4-(4-methylthiazol-5-yl)phenyl)ethyl)pyrrolidine-2-carboxamide] | > 75 | < 10 | > 10 | A (“A” indicates maximum degradation ≥ 75%) |  |  |  |
| Cc1ncsc1-c1ccc([C@H](C)NC(=O)[C@@H]2C[C@@H](O)CN2C(=O)[C@@H](c2cc(OCC(=O)N(C)[C@H]3CCc4[nH]c5nnc(-c6ccccc6O)cc5c4C3)no2)C(C)C)cc1 [Compound 106, (2S,4R)-4-hydroxy-1-((R)-2-(3-(2-(((S)-3-(2-hydroxyphenyl)-6,7,8,9-tetrahydro-5H-pyridazino[3,4-b]indol-6-yl)(methyl)amino)-2-oxoethoxy)isoxazol-5-yl)-3-methylbutanoyl)-N-((S)-1-(4-(4-methylthiazol-5-yl)phenyl)ethyl)pyrrolidine-2-carboxamide] | < 50 | > 10 |  | A (“A” indicates maximum degradation ≥ 75%) |  |  |  |
| Cc1ncsc1-c1ccc([C@H](C)NC(=O)[C@@H]2C[C@@H](O)CN2C(=O)[C@@H](c2cc(N3CCC(CN(C)[C@H]4CCc5[nH]c6nnc(-c7ccccc7O)cc6c5C4)CC3)no2)C(C)C)cc1 [Compound 107, (2S,4R)-4-hydroxy-1-((R)-2-(3-(4-((((S)-3-(2-hydroxyphenyl)-6,7,8,9-tetrahydro-5H-pyridazino[3,4-b]indol-6-yl)(methyl)amino)methyl)piperidin-1-yl)isoxazol-5-yl)-3-methylbutanoyl)-N-((S)-1-(4-(4-methylthiazol-5-yl)phenyl)ethyl)pyrrolidine-2-carboxamide] | > 75 | > 10 | > 10 | A (“A” indicates maximum degradation ≥ 75%) |  |  |  |
| Cc1ncsc1-c1ccc([C@H](C)NC(=O)[C@@H]2C[C@@H](O)CN2C(=O)[C@@H](c2cc(OCCN3C[C@H]4C[C@@H](c5c(C)[nH]c6nnc(-c7ccccc7O)cc56)C[C@H]4C3)no2)C(C)C)cc1 [Compound 109, (2S,4R)-4-hydroxy-1-((R)-2-(3-(2-((3aR,5R,6aS)-5-(3-(2-hydroxyphenyl)-6-methyl-7H-pyrrolo [2,3-c]pyridazin-5-yl)hexahydrocyclopenta[c]pyrrol-2(1H)-yl)ethoxy)isoxazol-5-yl)-3-methylbutanoyl)-N-((S)-1-(4-(4-methylthiazol-5-yl)phenyl)ethyl)pyrrolidine-2-carboxamide] |  |  |  | A (“A” indicates maximum degradation ≥ 75%) | > 10 | C (“C” indicates maximum degradation < 50%) |  |
| Cc1ncsc1-c1ccc([C@H](C)NC(=O)[C@@H]2C[C@@H](O)CN2C(=O)[C@@H](c2cc(OCCN3CC(c4cn(C(F)F)c5nnc(-c6ccccc6O)cc45)C3)no2)C(C)C)cc1 [Compound 116, (2S,4R)-1-((R)-2-(3-(2-(3-(7-(difluoromethyl)-3-(2-hydroxyphenyl)-7H-pyrrolo[2,3-c]pyridazin-5-yl)azetidin-1-yl)ethoxy)isoxazol-5-yl)-3-methylbutanoyl)-4-hydroxy-N-((S)-1-(4-(4-methylthiazol-5-yl)phenyl)ethyl)pyrrolidine-2-carboxamide] | < 50 |  |  | C (“C” indicates maximum degradation < 50%) |  |  |  |
| Cc1ncsc1-c1ccc(C(C)NC(=O)C2CC(O)CN2C(=O)C(c2cc(OCCN3CC4C(C3)C4c3cc4cc(-c5cc(F)cc(F)c5O)nnc4[nH]3)no2)C(C)C)cc1 [Compound 141, (2S,4R)-1-((R)-2-(3-(2-((1R,5S,6R)-6-(3-(3,5-difluoro-2-hydroxyphenyl)-7H-pyrrolo[2,3-c]pyridazin-6-yl)-3-azabicyclo[3.1.0]hexan-3-yl)ethoxy)isoxazol-5-yl)-3-methylbutanoyl)-4-hydroxy-N-((S)-1-(4-(4-methylthiazol-5-yl)phenyl)ethyl)pyrrolidine-2-carboxamide] | < 50 | > 10 |  | A (“A” indicates maximum degradation ≥ 75%) |  |  |  |
| Cc1ncsc1-c1ccc([C@H](C)NC(=O)[C@@H]2C[C@@H](O)CN2C(=O)[C@@H](c2cc(N3CCC(C(=O)N[C@H]4CCc5[nH]c6nnc(-c7ccccc7O)cc6c5C4)CC3)no2)C(C)C)cc1 [Compound 144, 1-(5-((R)-1-((2S,4R)-4-hydroxy-2-(((S)-1-(4-(4-methylthiazol-5-yl)phenyl)ethyl)carbamoyl)pyrrolidin-1-yl)-3-methyl-1-oxobutan-2-yl)isoxazol-3-yl)-N-((S)-3-(2-hydroxyphenyl)-6,7,8,9-tetrahydro-5H-pyridazino[3,4-b]indol-6-yl)piperidine-4-carboxamide] | > 50 | > 10 | > 100 | A (“A” indicates maximum degradation ≥ 75%) |  |  |  |
| Cc1ncsc1-c1ccc([C@H](C)NC(=O)[C@@H]2C[C@@H](O)CN2C(=O)[C@@H](c2cc(OCC(=O)N[C@@H]3CCc4[nH]c5nnc(-c6ccccc6O)cc5c4C3)no2)C(C)C)cc1 [Compound 150, (2S,4R)-4-hydroxy-1-((R)-2-(3-(2-(((R)-3-(2-hydroxyphenyl)-6,7,8,9-tetrahydro-5H-pyridazino[3,4-b]indol-6-yl)amino)-2-oxoethoxy)isoxazol-5-yl)-3-methylbutanoyl)-N-((S)-1-(4-(4-methylthiazol-5-yl)phenyl)ethyl)pyrrolidine-2-carboxamide] | > 50 | > 10 | > 100 | A (“A” indicates maximum degradation ≥ 75%) |  |  |  |

Continued, in another order:

| Dmax [1] [%] | DC50 (HiBit-BRM fusion protein) [nM] | DC50 [1, 2] [nM] | Structure (SMILES) | BRM HiBit Degradation Maximum (%) (HiBit-BRM fusion protein) | IC50 (HiBit-BRM fusion protein) [nM] | BRG1 HiBit Degradation Maximum (%) [1] | IC50 [1, 2] [nM] |
| --- | --- | --- | --- | --- | --- | --- | --- |
| < 50 |  |  | Cc1ncsc1-c1ccc(CNC(=O)[C@@H]2C[C@@H](O)CN2C(=O)[C@@H](NC(=O)CCCCC(=O)N2CC(c3c[nH]c4nnc(-c5ccccc5O)cc34)C2)C(C)(C)C)cc1 [Compound 47, (2S,4R)-4-hydroxy-1-((S)-2-(6-(3-(3-(2-hydroxyphenyl)-7H-pyrrolo[2,3-c]pyridazin-5-yl)azetidin-1-yl)-6-oxohexanamido)-3,3-dimethylbutanoyl)-N-(4-(4-methylthiazol-5-yl)benzyl)pyrrolidine-2-carboxamide] | C (“C” indicates maximum degradation < 50%) |  |  |  |
| > 50 |  |  | Cc1ncsc1-c1ccc([C@H](C)NC(=O)[C@@H]2C[C@@H](O)CN2C(=O)[C@@H](c2cc(OCCN3CC(C4(C)Cc5cc(-c6ccccc6O)nnc5N4)C3)no2)C(C)C)cc1 (stereo partly drawn) [Compound 122, (2S,4R)-4-hydroxy-1-((2R)-2-(3-(2-(3-(3-(2-hydroxyphenyl)-6-methyl-6,7-dihydro-5H-pyrrolo[2,3-c]pyridazin-6-yl)azetidin-1-yl)ethoxy)isoxazol-5-yl)-3-methylbutanoyl)-N-((S)-1-(4-(4-methylthiazol-5-yl)phenyl)ethyl)pyrrolidine-2-carboxamide] | C (“C” indicates maximum degradation < 50%) |  |  |  |
| < 50 | > 100 |  | Cc1ncsc1-c1ccc([C@H](C)NC(=O)[C@@H]2C[C@@H](O)CN2C(=O)[C@@H](c2cc(OCCN3Cc4[nH]c5nnc(-c6ccccc6O)cc5c4C3)no2)C(C)C)cc1 [Compound 123, (2S,4R)-4-hydroxy-1-[(2R)-2-(3-{2-[11-(2-hydroxyphenyl)-4,7,9,10-tetraazatricyclo[6.4.0.0^{2,6}]dodeca-1(12),2(6),8,10-tetraen-4-yl]ethoxy}-1,2-oxazol-5-yl)-3-methylbutanoyl]-N-[(1S)-1-[4-(4-methyl-1,3-thiazol-5-yl)phenyl]ethyl]pyrrolidine-2-carboxamide] | A (“A” indicates maximum degradation ≥ 75%) |  |  |  |
| < 50 | > 100 |  | Cc1ncsc1-c1ccc([C@H](C)NC(=O)[C@@H]2C[C@@H](O)CN2C(=O)[C@@H](c2cc(OCCCN[C@H]3CCc4[nH]c5nnc(-c6ccccc6O)cc5c4C3)no2)C(C)C)cc1 [Compound 143, (2S,4R)-4-hydroxy-1-((R)-2-(3-(3-(((S)-3-(2-hydroxyphenyl)-6,7,8,9-tetrahydro-5H-pyridazino[3,4-b]indol-6-yl)amino)propoxy)isoxazol-5-yl)-3-methylbutanoyl)-N-((S)-1-(4-(4-methylthiazol-5-yl)phenyl)ethyl)pyrrolidine-2-carboxamide] | A (“A” indicates maximum degradation ≥ 75%) |  |  |  |

Source: US20240024488A1, “COMPOUNDS AND USES THEREOF” (Foghorn Therapeutics Inc., priority 2020, published 2024)
